Measurements reported in patent US7687079B2, “Methods of treating ileus” (priority 2002, dated 2010).

Legend:
[1] = tested on: rats with ileus induced by mild manipulation of the small intestine; test: Example 4 intestinal transit (geometric center) after IM, CO pre-treatment; format: in vivo, rat
Procedure: Ileus was induced by mild manipulation of the small intestine (IM). Rats were exposed to decreasing concentrations of CO (250, 125, 75, 30 ppm) in air for a period of either 1 hr or 3 hr prior to laparotomy (n=6). Results were compared to those obtained using previously established protocols of exposure to CO at 250 ppm 1 hr before and for 24 hr after laparotomy. Gastrointestinal function was assessed in vivo by determining intestinal transit from the distribution throughout the GI tract of orally fed fluorescein labeled dextran. The median distribution of the labeled dextran was determined for statistical comparison by calculating the geometric center (GC).

[2] = tested on: pigs with ileus induced by mild manipulation of the small intestine; test: intestinal transit of steel ball bearings after IM in pig model; format: in vivo; settings: CO 250 ppm for 3 hr prior to IM
Procedure: Similar experiments were performed in a pig model. Ileus was induced by mild manipulation of the small intestine (IM). Pigs were exposed to CO (250 ppm) or air (controls) for a period of 3 hr prior to IM. Gastrointestinal function was assessed in vivo by observing intestinal transit of steel ball bearings placed within the small intestine.

IL-1β mRNA = IL-1β mRNA expression in muscularis externae of intestinal grafts; format: in vivo, rat
Procedure: To investigate the sequential analysis of cytokine mRNA expression in the mucosa and muscularis, RNase protection assay was performed with the Riboquant™ kit (Pharmingen) according to the protocol of the manufacturer. […] Quantification of radioactivity of mRNA bands was performed with NIH Image, normalized to GAPDH, and expressed as a ratio of cytokine /GAPDH (n=3-4).
The effects of inhalation of CO on transplant-induced pro-inflammatory and anti-inflammatory gene expression was assessed in muscularis extracts by RT-PCR. […] Equal aliquots (5 μg) of total RNA from each sample were quantified by spectrophotometry (wavelength […]) and aliquoted at a concentration of 40 ng/μl. Peak mRNA expression was quantified in duplicate by SYBR Green two-step, real-time RT-PCR. […] Real-time PCR data were plotted as the ΔRn, fluorescence signal versus the cycle number. […] Quantification of mRNA expression was normalized to GAPDH and calculated relative to control using the comparative CT method (Schmittgen et al., J. Biochem. Biophys. Methods 46(1-2):69-8 (2000)). […]

## [C-]#[O+] [CO, carbon monoxide]
[1]; IM rats, 250 ppm for 1 hr only prior to surgery
  geometric center (GC): 7.2±0.3
[1]; IM rats, 250 ppm pretreatment for 3 hr
  geometric center (GC): 8.6±0.3
[1]; IM rats, 250 ppm, 1 hr pretreatment followed by 24 hr post-treatment
  geometric center (GC): 8.2±0.4
[1]; IM rats, pre-treating with 30 ppm
  geometric center (GC): 7.0±0.2
[1]; IM rats, pre-treating with 75 ppm
  geometric center (GC): 8.8±0.1
[1]; IM rats, pre-treating with 125 ppm
  geometric center (GC): 8.6±0.4
[1]; unoperated rats, 250 ppm for 24 hr
  geometric center (GC): 8.8±0.4
[2]
  intestinal transit: improve
IL-1β mRNA; SITx + CO, Table 2
  IL-1β mRNA: 6.6 + 0.1 % GAPDH
IL-1β mRNA; SITx recipients treated with CO vs SITx, 4 hours after reperfusion, p=0.046
  reduction of mean relative IL-1β mRNA expression: 50%
